In patent publication US10421779B2, “Carbazole compound having anti-virus activity” (priority 2016, dated 2019):
pEC50: −log10 of the molar value.

Key:
Assay type in all cases: cell-based
[1] = test system: hepatitis C virus double mutant L31V and Y93H of the NS5A region; test: Efficacy on resistant double mutant (L31V and Y93H); settings: read-out: EC50 Double mutant
Source text: (§1) As a mutant resistant to hepatitis C virus, L31V and Y93H of the NS5A region, and double mutants thereof were applied.

[2] = test system: hepatitis C virus mutant Y93H of the NS5A region; test: Efficacy on resistant mutant Y93H; settings: read-out: EC50 Y93H
Source text: as §1

[3] = test system: HCV genotype 1 b (HCV replicon system); test: HCV replicon system genotype 1b, Renilla luciferase activity; settings: Hepatitis C virus, 72 h; HCV genotype 1b replicon, Rluc, 3 days; read-out: Replicon EC50 1b type
Experimental: (§2) From human liver cells (Huh7.5.1 cell) infected by hepatitis C virus, the anti-virus effects by the compound of the present invention were measured. From HCV genotype 1 b (HCV replicon system), genotype 2a (HCV cell culture system, HCVcc), and genotype 3a, the EC50 values were measured.
In order to measure the EC50 value from HCV genotype 1 b, the degrees of HCV replication inhibitory activities of an experimental compound were measured. The EC50 value was measured by treating the experimental compound with the HCV replicon systems (genotype 1 b) having Renilla luciferase (Rluc) genes and genotype 1 b non-structure genes under various concentration conditions to compare the activity degree of the luciferase after 3 days elapsed time with that of the control.

[4] = test system: hepatitis C virus mutant L31V of the NS5A region; test: Efficacy on resistant mutant L31V; settings: read-out: EC50 L31V
Source text: as §1

[5] = test system: HCV genotype 3a (HCV replicon system); test: HCV replicon system genotype 3a, firefly luciferase activity; settings: Hepatitis C virus, 72 h; HCV genotype 3a replicon, Fluc, 3 days; read-out: Replicon EC50 3a type
Experimental: as §2
In order to measure the EC50 value from genotype 3a, the value was measured through the luciferase activity. A HCV replicon system having firefly luciferase (Fluc) genes and genotype 3a non-structure genes was used. The HCV replicon system having the genes as described above was used to treat the experimental compound under various concentration conditions, and then 3 days later, the EC50 value was measured by comparing the luciferase activity with that of the control.

[6] = test system: HCV genotype 2a (HCV cell culture system, HCVcc); test: HCVcc genotype 2a JFH1 (JFH 5a-Rluc) virus in Huh7.5.1 cells, luciferase assay; settings: Hepatitis C virus, Huh-7.5.1, 72 h, HCV genotype 2a JFH 5a-Rluc, 3 days, read-out: Replicon EC50 2a type
Experimental: as §2
In order to measure the EC50 value from HCV genotype 2a, a luciferase assay was used. A JFH1 clone (JFH 5a-Rluc) virus constructed to have a Renilla luciferase enzyme (Rluc) gene in NS5A protein was infected with Huh7.5.1 cell being a host cell, and then the EC50 value was measured by taking cells grown for 3 days by treating the experimental compound under various concentration conditions, and analyzing the activity degree of the luciferase.

SMILES | pEC50 [1] | pEC50 [2] | pEC50 [3] | pEC50 [4] | pEC50 [5] | pEC50 [6]
COC(=O)N[C@@H](C(=O)N1CCC[C@H]1C(=O)Nc1ccc2c3ccc(NC(=O)[C@@H]4CCCN4C(=O)[C@H](NC(=O)OC)c4ccccc4)cc3n(Cc3ccc(OC)cc3)c2c1)c1ccccc1 [Example 14, dimethyl ((1R,1′R)-((2S,2′S)-(((9-(4-methoxybenzyl)-9H-carbazole-2,7-diyl)bis(azanediyl))bis(carbonyl))bis(pyrrolidine-2,1-diyl))bis(2-oxo-1-phenylethane-2,1-diyl))dicarbamate] | < 6.00 | 6.00 to 7.00 | 10.69 | 9.00 to 10.00 | – | –
COC(=O)N[C@H](C(=O)N1CCC[C@H]1c1nc(-c2ccc(-c3ccc(-c4c[nH]c([C@@H]5CCCN5C(=O)[C@@H](NC(=O)OC)C(C)C)n4)cc3)cc2)c[nH]1)C(C)C [BMS-790052, reference compound] | < 6.00 | 8.00 to 9.00 | – | 9.00 to 10.00 | – | –
COCCOc1cccc(Cn2c3cc(NC(=O)[C@@H]4CCCN4C(=O)[C@H](NC(=O)OC)c4ccccc4)ccc3c3ccc(NC(=O)[C@@H]4CCCN4C(=O)[C@H](NC(=O)OC)c4ccccc4)cc32)c1 [Example 41, dimethyl ((1R,1′R)-((2S,2′S)-(((9-(3-(2-methoxyethoxy)benzyl)-9H-carbazole-2,7-diyl)bis(azanediyl))bis(carbonyl))bis(pyrrolidine-2,1-diyl))bis(2-oxo-1-phenylethane-2,1-diyl))dicarbamate] | – | < 6.00 | 11.02 | 9.00 to 10.00 | 10.38 | –
COC(=O)N[C@@H](C(=O)N1CCC[C@H]1C(=O)Nc1ccc2c3ccc(NC(=O)[C@@H]4CCCN4C(=O)[C@H](NC(=O)OC)c4ccccc4)cc3n(Cc3cccc(C)n3)c2c1)c1ccccc1 [Example 20, dimethyl ((1R,1′R)-((2S,2′S)-(((9-((6-methylpyridine-2-yl)methyl)-9H-carbazole-2,7-diyl)bis(azanediyl))bis(carbonyl))bis(pyrrolidine-2,1-diyl))bis(2-oxo-1-phenylethane-2,1-diyl))dicarbamate] | < 6.00 | < 6.00 | 9.65 | 7.00 to 8.00 | – | –
CCCCCCCCCCCCn1c2cc(NC(=O)[C@@H]3CCCN3C(=O)[C@H](NC(=O)OC)c3ccccc3)ccc2c2ccc(NC(=O)[C@@H]3CCCN3C(=O)[C@H](NC(=O)OC)c3ccccc3)cc21 [Example 27, dimethyl ((1R,1′R)-((2S,2′S)-(((9-dodecyl-9H-carbazole-2,7-diyl)bis(azanediyl))bis(carbonyl))bis(pyrrolidine-2,1-diyl))bis(2-oxo-1-phenylethane-2,1-diyl))dicarbamate] | – | – | 11.73 | 9.00 to 10.00 | – | 7.00 to 8.00
COC(=O)N[C@@H](C(=O)N1CCC[C@H]1C(=O)Nc1ccc2c3ccc(NC(=O)[C@@H]4CCCN4C(=O)[C@H](NC(=O)OC)c4ccccc4)cc3n(CCCCCCCCCCN3CCOCC3)c2c1)c1ccccc1 [Example 34, dimethyl ((1R,1′R)-((2S,2′S)-(((9-(10-morpholinodecyl)-9H-carbazole-2,7-diyl)bis(azanediyl))bis(carbonyl))bis(pyrrolidine-2,1-diyl))bis(2-oxo-1-phenylethane-2,1-diyl))carbamate] | – | 6.00 to 7.00 | 10.00 to 11.00 | > 10.00 | 10.00 to 11.00 | 8.00 to 9.00
COC(=O)N[C@@H](C(=O)N1CCC[C@H]1C(=O)Nc1ccc2c3ccc(NC(=O)[C@@H]4CCCN4C(=O)[C@H](NC(=O)OC)c4ccccc4)cc3n(Cc3ccncc3)c2c1)c1ccccc1 [Example 19, dimethyl ((1R,1′R)-((2S,2′S)-(((9-(pyridine-4-ylmethyl)-9H-carbazole-2,7-diyl)bis(azanediyl))bis(carbonyl))bis(pyrrolidine-2,1-diyl))bis(2-oxo-1-phenylethane-2,1-diyl))dicarbamate] | < 6.00 | < 6.00 | 9.61 | 8.00 to 9.00 | – | –
COC(=O)N[C@@H](C(=O)N1CCC[C@H]1C(=O)Nc1ccc2c3ccc(NC(=O)[C@@H]4CCCN4C(=O)[C@H](NC(=O)OC)c4ccccc4)cc3n(Cc3ccccc3)c2c1)c1ccccc1 [Example 13, dimethyl ((1R,1′R)-((2S,2′S)-(((9-benzyl-9H-carbazole-2,7-diyl)bis(azanediyl))bis(carbonyl))bis(pyrrolidine-2,1-diyl))bis(2-oxo-1-phenylethane-2,1-diyl))dicarbamate] | < 6.00 | 6.00 to 7.00 | 10.61 | 9.00 to 10.00 | – | –
CCCCCCCCn1c2cc(NC(=O)[C@@H]3CCCN3C(=O)[C@H](NC(=O)OC)c3ccccc3)ccc2c2ccc(NC(=O)[C@@H]3CCCN3C(=O)[C@H](NC(=O)OC)c3ccccc3)cc21 [Example 26, dimethyl ((1R,1′R)-((2S,2′S)-(((9-octyl-9H-carbazole-2,7-diyl)bis(azanediyl))bis(carbonyl))bis(pyrrolidine-2,1-diyl))bis(2-oxo-1-phenylethane-2,1-diyl))dicarbamate] | – | – | 11.10 | 8.00 to 9.00 | – | 7.00 to 8.00
CCCCCCCCCC(c1ccccc1)n1c2cc(NC(=O)[C@@H]3CCCN3C(=O)[C@H](NC(=O)OC)c3ccccc3)ccc2c2ccc(NC(=O)[C@@H]3CCCN3C(=O)[C@H](NC(=O)OC)c3ccccc3)cc21 (stereo partly drawn) [Example 42, dimethyl ((1R,1′R)-((2S,2′S)-(((9-(1-phenyldecyl)-9H-carbazole-2,7-diyl)bis(azanediyl))bis(carbonyl))bis(pyrrolidine-2,1-diyl))bis(2-oxo-1-phenylethane-2,1-diyl))dicarbamate] | – | 6.00 to 7.00 | 11.91 | 9.00 to 10.00 | 10.48 | 7.00 to 8.00
COC(=O)N[C@@H](C(=O)N1CCC[C@H]1C(=O)Nc1ccc2c3ccc(NC(=O)[C@@H]4CCCN4C(=O)[C@H](NC(=O)OC)c4ccccc4)cc3n(Cc3cccc(OC4CCCC4)c3)c2c1)c1ccccc1 [Example 39, dimethyl ((1R,1′R)-((2S,2′S)-(((9-(3-(cyclopentyloxy)benzyl)-9H-carbazole-2,7-diyl)bis(azanediyl))bis(carbonyl))bis(pyrrolidine-2,1-diyl))bis(2-oxo-1-phenylethane-2,1-diyl))dicarbamate] | – | 6.00 to 7.00 | 11.95 | 9.00 to 10.00 | 11.19 | –
CCCCOc1ccc(Cn2c3cc(NC(=O)[C@@H]4CCCN4C(=O)[C@H](NC(=O)OC)c4ccccc4)ccc3c3ccc(NC(=O)[C@@H]4CCCN4C(=O)[C@H](NC(=O)OC)c4ccccc4)cc32)cc1 [Example 36, dimethyl ((1R,1′R)-((2S,2′S)-(((9-(4-butoxybenzyl)-9H-carbazole-2,7-diyl)bis(azanediyl))bis(carbonyl))bis(pyrrolidine-2,1-diyl))bis(2-oxo-1-phenylethane-2,1-diyl))dicarbamate] | – | 6.00 to 7.00 | 11.49 | 9.00 to 10.00 | 10.90 | –
CCCC(c1ccccc1)n1c2cc(NC(=O)[C@@H]3CCCN3C(=O)[C@H](NC(=O)OC)c3ccccc3)ccc2c2ccc(NC(=O)[C@@H]3CCCN3C(=O)[C@H](NC(=O)OC)c3ccccc3)cc21 (stereo partly drawn) [Example 28, dimethyl ((1R,1′R)-((2S,2′S)-(((9-(1-phenylbutyl)-9H-carbazole-2,7-diyl)bis(azanediyl))bis(carbonyl))bis(pyrrolidine-2,1-diyl))bis(2-oxo-1-phenylethane-2,1-diyl))dicarbamate] | – | – | 11.34 | > 10.00 | – | 8.00 to 9.00
CCCCCOc1cccc(Cn2c3cc(NC(=O)[C@@H]4CCCN4C(=O)[C@H](NC(=O)OC)c4ccccc4)ccc3c3ccc(NC(=O)[C@@H]4CCCN4C(=O)[C@H](NC(=O)OC)c4ccccc4)cc32)c1 [Example 30, dimethyl ((1R,1′R)-((2S,2′S)-(((9-(3-(pentyloxy)benzyl)-9H-carbazole-2,7-diyl)bis(azanediyl))bis(carbonyl))bis(pyrrolidine-2,1-diyl))bis(2-oxo-1-phenylethane-2,1-diyl))dicarbamate] | – | – | 10.00 to 11.00 | – | 10.15 | ~9.00
CCCCCCOc1ccc(Cn2c3cc(NC(=O)[C@@H]4CCCN4C(=O)[C@H](NC(=O)OC)c4ccccc4)ccc3c3ccc(NC(=O)[C@@H]4CCCN4C(=O)[C@H](NC(=O)OC)c4ccccc4)cc32)cc1 [Example 31, dimethyl ((1R,1′R)-((2S,2′S)-(((9-(4-(hexyloxy)benzyl)-9H-carbonyl-2,7-diyl)bis(azanediyl))bis(carbonyl))bis(pyrrolidine-2,1-diyl))bis(2-oxo-1-phenylethane-2,1-diyl))dicarbamate] | – | 7.00 to 8.00 | ~11.00 | > 10.00 | ~11.00 | 8.00 to 9.00
